Common to all, as to test: ≥ marks a high value that may be exact or a test limit, other limits are often not marked, values filed in µg/mL are converted to µM
The test system of experiment [1] is Staphylococcus epidermidis 154.
Experiment [2] concerns Staphylococcus epidermidis ATCC 12228.
The subject of experiment [3] is Franconibacter helveticus DSM 18390.
Experiment [4] deals with Escherichia coli DSM 1116.
Experiment [5] has as its system Staphylococcus xylosus DSM 20287.
Experiment [6] deals with Bacillus subtilis DSM 347.
For another experiment, the system named is Citrobacter freundii.
For experiment [7], the system named is Staphylococcus haemolyticus.
In experiment [8] the test system is Salmonella enterica subsp. enterica serovar Paratyphi A.
In another experiment the test system is Klebsiella pneumoniae.
In experiment [9] the test system is Acinetobacter baumannii ATCC 17978.
The subject of experiment [10] is Staphylococcus aureus HNCMO 112011.
For experiment [11], the system named is Escherichia coli ATCC 8739.
The subject of experiment [12] is Escherichia coli ATCC 25922.
Experiment [13] relates to Staphylococcus aureus ATCC 6538.
Experiment [14] has as its system Staphylococcus hominis ATCC 27844.
The test system of experiment [15] is Pseudomonas aeruginosa ATCC 15442.
Experiment [16] relates to Enterococcus faecalis ATCC 2912.
Experiment [17] concerns Candida albicans ATCC 10231.

As usually defined, the MIC is the lowest concentration that inhibits growth of the organism. Lower therefore signals greater potency.

Values after ≈ are worked out from the molar mass of the structure shown.

In the case of `CC(C)C[C@H](NC(=O)[C@H](Cc1ccc(O)cc1)NC(=O)[C@H](Cc1ccc(O)cc1)NC(=O)CNC(=O)[C@H](Cc1c[nH]c2ccccc12)NC(=O)[C@H](CO)NC(=O)[C@H](CO)NC(=O)[C@H](Cc1c[nH]c2ccccc12)NC(=O)[C@H](CC(C)C)NC(=O)[C@H](CCCCN)NC(=O)[C@@H](NC(=O)[C@@H](NC(=O)[C@H](CC(C)C)NC(=O)[C@@H](N)CC(=O)O)[C@@H](C)O)[C@@H](C)O)C(=O)NCC(=O)N[C@@H](CCCCN)C(=O)N[C@@H](CCCCN)C(=O)N[C@@H](C)C(=O)N[C@@H](CCCN=C(N)N)C(=O)N[C@@H](Cc1c[nH]c2ccccc12)C(=O)N[C@@H](CC(N)=O)C(=O)N[C@@H](CC(C)C)C(=O)N[C@@H](CCCCN)C(=O)N[C@@H](Cc1cnc[nH]1)C(=O)N1CCC[C@H]1C(=O)N[C@@H](Cc1ccc(O)cc1)C(=O)N[C@H](C(=O)N[C@@H](CCC(N)=O)C(=O)N[C@@H](Cc1ccccc1)C(=O)O)C(C)C` [DLTTKLWSSWGYYLGKKARWNLKHPYVQF], the figures for the MIC in [1] and in experiment [2] were 25 µM (≈ 89.7 µg/mL) and 12.5 µM (≈ 44.8 µg/mL), respectively.

For the molecule `CC[C@H](C)[C@H](N)C(=O)N[C@@H](C)C(=O)NCC(=O)N[C@@H](CCCCN)C(=O)N[C@H](C(=O)N[C@@H](C)C(=O)N[C@@H](CCCCN)C(=O)N[C@H](C(=O)N[C@@H](C)C(=O)NCC(=O)N[C@@H](CCCCN)C(=O)N[C@H](C(=O)N[C@@H](C)C(=O)N[C@@H](CCCCN)C(=O)N[C@H](C(=O)N[C@@H](C)C(=O)NCC(=O)N[C@@H](CCCCN)C(=O)N[C@H](C(=O)N[C@@H](C)C(N)=O)[C@@H](C)CC)[C@@H](C)CC)[C@@H](C)CC)[C@@H](C)CC)[C@@H](C)CC` [IAGKIAKIAGKIAKIAGKIA], the MIC in experiment [3] was 2.92 µM (≈ 5.65 µg/mL); in [4], 4.13 µM (≈ 8 µg/mL); in experiment [5], 2.07 µM (≈ 4 µg/mL); in [6] it was 1.46 µM (≈ 2.83 µg/mL).

For `CC(C)C[C@H](NC(=O)[C@H](CCCCN)NC(=O)[C@H](CC(C)C)NC(=O)[C@H](CCCCN)NC(=O)[C@H](CS)NC(=O)[C@H](CC(C)C)NC(=O)[C@H](Cc1c[nH]c2ccccc12)NC(=O)CNC(=O)[C@H](CCCCN)NC(=O)[C@H](CS)NC(=O)[C@@H]1CCCN1C(=O)[C@@H](N)CCCCN)C(=O)N[C@@H](CCCN=C(N)N)C(=O)O` [KPCKGWLCKLKLR], the MIC was 7.63 µM (≈ 12 µg/mL) against Citrobacter freundii, 1.91 µM (≈ 3 µg/mL) in [7], 3.81 µM (≈ 6 µg/mL) in experiment [8] and 3.81 µM (≈ 6 µg/mL) against Klebsiella pneumoniae.

As to `CC(C)C[C@H](NC(=O)[C@@H]1CCCN1C(=O)[C@H](CCCN=C(N)N)NC(=O)[C@H](CCCN=C(N)N)NC(=O)[C@H](CS)NC(=O)[C@H](CCC(N)=O)NC(=O)[C@@H](N)CCC(N)=O)C(=O)N[C@@H](Cc1ccc(O)cc1)C(=O)N[C@@H](CS)C(=O)N[C@@H](CCCN=C(N)N)C(=O)N[C@@H](CCCN=C(N)N)C(=O)N[C@@H](CCCN=C(N)N)C(=O)O` [QQCRRPLYCRRR], the MIC in experiment [9], in experiment [10] and in experiment [11] was 25 µM (≈ 40.9 µg/mL) throughout.

For the molecule `CSCC[C@H](NC(=O)[C@H](CCC(N)=O)NC(=O)[C@H](CO)NC(=O)CNC(=O)[C@H](CCCCN)NC(=O)[C@@H](N)CCCN=C(N)N)C(=O)NCC(=O)N[C@@H](CCCCN)C(=O)N[C@@H](CCCCN)C(=O)N[C@@H](CS)C(=O)N[C@@H](CCC(=O)O)C(=O)N[C@@H](CS)C(=O)N1CCC[C@H]1C(=O)O` [RKGSQMGKKCECP], the MIC was 13 µM (≈ 18.9 µg/mL) in experiment [12]; 3.2 µM (≈ 4.65 µg/mL) in experiment [13]; ≥ 40 µM in [14]; 13 µM (≈ 18.9 µg/mL) in [15]; ≥ 40 µM in experiment [16]; 3.2 µM (≈ 4.65 µg/mL) in experiment [17].

Values taken from DBAASP.
